Measured values from patent publication US6821991B2, “2-substituted thiazolidinones as β-3 adrenergic receptor agonists” (Wyeth, priority 2000, dated 2004).

Assays:
[1] = target: T1, β3-adrenergic receptor (Homo sapiens, UniProt P13945); assay: cAMP accumulation (SPA) in CHO cells transfected with human β3 adrenergic receptor; assay type: cell-based; details: for EC50: CHO cells expressing human β3-AR, cAMP, 30 min, 37° C., 10^-9 M to 10^-5 M; for IA(β3): maximal response relative to maximal response of isoproterenol at 10^-5 M
T1 construct: Full length β3 AR clones (402 amino acids) containing the last 6 amino acids of hβ3-AR are prepared; expressed in transfected cells; host or cells: CHO (Chinese hamster ovary) cells
T1 sequence (P13945 whole entry): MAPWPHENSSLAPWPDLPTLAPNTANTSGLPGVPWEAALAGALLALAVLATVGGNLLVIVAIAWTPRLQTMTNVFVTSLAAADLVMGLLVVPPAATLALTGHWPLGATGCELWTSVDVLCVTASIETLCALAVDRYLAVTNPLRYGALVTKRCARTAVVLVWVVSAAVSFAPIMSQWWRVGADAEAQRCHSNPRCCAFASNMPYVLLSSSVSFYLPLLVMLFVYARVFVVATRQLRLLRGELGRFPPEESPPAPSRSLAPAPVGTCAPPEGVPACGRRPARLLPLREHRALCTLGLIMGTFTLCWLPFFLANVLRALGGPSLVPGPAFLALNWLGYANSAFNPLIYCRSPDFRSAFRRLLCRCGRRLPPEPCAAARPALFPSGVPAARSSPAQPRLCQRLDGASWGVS
Procedure: The ability of compounds of this invention to treat or inhibit disorders related to insulin resistance or hyperglycemia was established with representative compounds of this invention in the following standard pharmacological test procedures, which measured the binding selectivity to the β1, β2, and β3 adrenergic receptors. Binding to the receptors was measured in Chinese Hamster ovary (CHO) cells that were transfected with adrenergic receptors.
Cloning of Human β3-AR Genomic DNA: CDNA was constructed by ligating four polymerase chain reaction (PCR) products using the following primers: an ATG-Narl fragment, sense primer 5′-[…]3′, and anti-sense primer 5′[…]3′; a Narl-Accl fragment, 5′[…]3′ as sense and 5′[…]3′ as anti-sense primer; an Accli-Styl fragment, sense primer 5′[…]3′ and anti-sense primer 5′[…]3′ and a Styl-TAG fragment, with sense primer 5′[…]3′ and anti-sense primer 5′[…]3′. The corresponding primer sequences are described in Mantzoros, C. […] The four fragments are ligated into a pUC 18 plasmid (Gibco-BRL) and sequenced.
Binding Procedure: Clones expressing receptor levels of 70 to 110 fmoles/mg protein were used in the test procedures. CHO cells were grown in 24-well tissue culture plates in Dulbecco's Modified Eagle Media with 10% fetal bovine serum, MEM non-essential amino acids, Penicillin-Streptompycin and Geneticin. On the day of test procedure, growth medium was replaced with preincubation media (Dulbecco's Modified Eagle Media) and incubated for 30 minutes at 37° C. […] Test compounds were tested over a concentration range of 10^−9 M to 10^−5 M for β3 cells and 10^−8 to 10^−4 M for β1 and β2 transfected cells. Isoproterenol (10^−5 M) was used as an internal standard for comparison of activity. Cells were incubated at 37° C. on a rocker for 30 min with the β3 cells and 15 min for β1 and β2 cells. Incubation was stopped with the addition of 0.2N HCl and neutralized with 2.5N NaOH. The plates, containing the cells and neutralized media, were stored at −20 degrees celsius until ready to test for cAMP using the SPA test kit (Amersham).
Data Analysis and Results: Data collected from the SPA test procedure were analyzed as per cent of the maximal isoproterenol response at 10^−5 M. Activity curves were plotted using the SAS statistical and graphics software.

EC50 [1] [nM] | IA(β3) [1] | melting point | Compound
17 | 0.91 | > 270 °C (dec.) | O=C(O)CC[C@H](NC1=NC(=O)C(=Cc2ccc(N3CCC(NC[C@H](O)COc4cccc5[nH]c(=O)[nH]c45)CC3)cc2)S1)C(=O)O [Example 29, (2S)-2-[5-(4-{4-[(2S)-2-Hydroxy-3-(2-oxo-2,3-dihydro-1H-benzoimidazol-4-yloxy)-propylamino]-piperidin-1-yl}-benzylidene)-4-oxo-4,5-dihydro-thiazol-2-ylamino]-pentanedioic acid]
1 | 1.0 | > 130 °C (dec.) | CCOC(=O)CC[C@H](NC1=NC(=O)C(=Cc2ccc(N3CCC(NC[C@H](O)c4ccc(O)c(NS(C)(=O)=O)c4)CC3)cc2)S1)C(=O)OCC [Example 30, (2S)-2-[5-(4-{4-[(2R)-2-Hydroxy-2-(4-hydroxy-3-methanesulfonylamino-phenyl)-ethylamino]-piperidin-1-yl}-benzylidene)-4-oxo-4,5-dihydro-thiazol-2-ylamino]-pentanedioic acid diethyl ester]

The remaining lines, values behind:

Compound | EC50 [1] [nM] | IA(β3) [1] | melting point
CN(C)CCCNC1=NC(=O)C(=Cc2ccc(N3CCC(NC[C@H](O)COc4ccccc4)CC3)cc2)S1 [Example 26, 2-(3-Dimethylamino-propylamino)-5-{4-[4-((2S)-2-hydroxy-3-phenoxy-propylamino)-piperidin-1-yl]-benzylidene}-thiazol-4-one] | 156 | 0.85 | 166 to 168 °C (dec.)
CCCCCCNC1=NC(=O)C(=Cc2ccc(N3CCC(NC[C@H](O)COc4ccccc4)CC3)cc2)S1 [Example 27, 2-Hexylamino-5-{4-[4-((2S)-2-hydroxy-3-phenoxy-propylamino)-piperidin-1-yl]-benzylidene}-thiazol-4-one] | – | 0.58 | 182 to 184 °C (dec.)
O=C1CCc2c(OC[C@@H](O)CNCCOc3ccc(C=C4SC(N5CCCCC5)=NC4=O)cc3)ccc(O)c2N1 [Example 34, 8-Hydroxy-5-((2S)-2-hydroxy-3-{2-[4-(4-oxo-2-piperidin-1-yl-4H-thiazol-5-ylidenemethyl)-phenoxy]-ethylamino}-propoxy)-3,4-dihydro-1H-quinolin-2-one] | 3 | 1.0 | > 115 °C (dec.)
